What was measured:
Assay in all cases: cells
Type in all cases: functional, cell-based, Homo sapiens
COR-L88 = details: Homo sapiens, COR-L88
Description: SANGER: Inhibition of human COR-L88 cell growth in a cell viability assay.

CP66-MEL = details: Homo sapiens, CP66-MEL
Description: SANGER: Inhibition of human CP66-MEL cell growth in a cell viability assay.

CTV-1 = details: Homo sapiens, CTV-1
Description: SANGER: Inhibition of human CTV-1 cell growth in a cell viability assay.

DMS-79 = details: Homo sapiens, DMS-79
Description: SANGER: Inhibition of human DMS-79 cell growth in a cell viability assay.

DOHH-2 = details: Homo sapiens, DOHH-2
Description: SANGER: Inhibition of human DOHH-2 cell growth in a cell viability assay.

EKVX = details: Homo sapiens, EKVX
Description: SANGER: Inhibition of human EKVX cell growth in a cell viability assay.

ES1 = details: Homo sapiens, ES1
Description: SANGER: Inhibition of human ES1 cell growth in a cell viability assay.

EW-24 = details: Homo sapiens, EW-24
Description: SANGER: Inhibition of human EW-24 cell growth in a cell viability assay.

GB-1 = details: Homo sapiens, GB-1
Description: SANGER: Inhibition of human GB-1 cell growth in a cell viability assay.

HCC1187 = details: Homo sapiens, HCC1187
Description: SANGER: Inhibition of human HCC1187 cell growth in a cell viability assay.

HCC2157 = details: Homo sapiens, HCC2157
Description: SANGER: Inhibition of human HCC2157 cell growth in a cell viability assay.

HD-MY-Z = details: Homo sapiens, HD-MY-Z
Description: SANGER: Inhibition of human HD-MY-Z cell growth in a cell viability assay.

HEL = details: Homo sapiens, HEL
Description: SANGER: Inhibition of human HEL cell growth in a cell viability assay.

HOP-62 = details: Homo sapiens, HOP-62
Description: SANGER: Inhibition of human HOP-62 cell growth in a cell viability assay.

HT-144 = details: Homo sapiens, HT-144
Description: SANGER: Inhibition of human HT-144 cell growth in a cell viability assay.

IA-LM = details: Homo sapiens, IA-LM
Description: SANGER: Inhibition of human IA-LM cell growth in a cell viability assay.

IST-MEL1 = details: Homo sapiens, IST-MEL1
Description: SANGER: Inhibition of human IST-MEL1 cell growth in a cell viability assay.

KNS-81-FD = details: Homo sapiens, KNS-81-FD
Description: SANGER: Inhibition of human KNS-81-FD cell growth in a cell viability assay.

L-363 = details: Homo sapiens, L-363
Description: SANGER: Inhibition of human L-363 cell growth in a cell viability assay.

LU-139 = details: Homo sapiens, LU-139
Description: SANGER: Inhibition of human LU-139 cell growth in a cell viability assay.

MS-1 = details: Homo sapiens, MS-1
Description: SANGER: Inhibition of human MS-1 cell growth in a cell viability assay.

MSTO-211H = details: Homo sapiens, MSTO-211H
Description: SANGER: Inhibition of human MSTO-211H cell growth in a cell viability assay.

NB12 = details: Homo sapiens, NB12
Description: SANGER: Inhibition of human NB12 cell growth in a cell viability assay.

NB5 = details: Homo sapiens, NB5
Description: SANGER: Inhibition of human NB5 cell growth in a cell viability assay.

NB6 = details: Homo sapiens, NB6
Description: SANGER: Inhibition of human NB6 cell growth in a cell viability assay.

NB69 = details: Homo sapiens, NB69
Description: SANGER: Inhibition of human NB69 cell growth in a cell viability assay.

NCI-H1092 = details: Homo sapiens, NCI-H1092
Description: SANGER: Inhibition of human NCI-H1092 cell growth in a cell viability assay.

NCI-H1304 = details: Homo sapiens, NCI-H1304
Description: SANGER: Inhibition of human NCI-H1304 cell growth in a cell viability assay.

NCI-H209 = details: Homo sapiens, NCI-H209
Description: SANGER: Inhibition of human NCI-H209 cell growth in a cell viability assay.

NCI-H526 = details: Homo sapiens, NCI-H526
Description: SANGER: Inhibition of human NCI-H526 cell growth in a cell viability assay.

NCI-H69 = details: Homo sapiens, NCI-H69
Description: SANGER: Inhibition of human NCI-H69 cell growth in a cell viability assay.

NCI-H747 = details: Homo sapiens, NCI-H747
Description: SANGER: Inhibition of human NCI-H747 cell growth in a cell viability assay.

SNU-5 = details: Homo sapiens, SNU-5
Description: SANGER: Inhibition of human NCI-SNU-5 cell growth in a cell viability assay.

NTERA-2-cl-D1 = details: Homo sapiens, NTERA-2-cl-D1
Description: SANGER: Inhibition of human NTERA-S-cl-D1 cell growth in a cell viability assay.

OCUB-M = details: Homo sapiens, OCUB-M
Description: SANGER: Inhibition of human OCUB-M cell growth in a cell viability assay.

SCC-15 = details: Homo sapiens, SCC-15
Description: SANGER: Inhibition of human SCC-15 cell growth in a cell viability assay.

SK-N-DZ = details: Homo sapiens, SK-N-DZ
Description: SANGER: Inhibition of human SK-N-DZ cell growth in a cell viability assay.

SK-N-FI = details: Homo sapiens, SK-N-FI
Description: SANGER: Inhibition of human SK-N-FI cell growth in a cell viability assay.

SK-UT-1 = details: Homo sapiens, SK-UT-1
Description: SANGER: Inhibition of human SK-UT-1 cell growth in a cell viability assay.

SW 962 = details: Homo sapiens, SW 962
Description: SANGER: Inhibition of human SW962 cell growth in a cell viability assay.

A3-KAW = details: Homo sapiens, A3-KAW
Description: SANGER: Inhibition of human A3-KAW cell growth in a cell viability assay.

AM-38 = details: Homo sapiens, AM-38
Description: SANGER: Inhibition of human AM-38 cell growth in a cell viability assay.

ATN-1 = details: Homo sapiens, ATN-1
Description: SANGER: Inhibition of human ATN-1 cell growth in a cell viability assay.

C8166 = details: Homo sapiens, C8166
Description: SANGER: Inhibition of human C8166 cell growth in a cell viability assay.

TGBC1TKB = details: Homo sapiens, TGBC1TKB
Description: SANGER: Inhibition of human TGBC1TKB cell growth in a cell viability assay.

TGW = details: Homo sapiens, TGW
Description: SANGER: Inhibition of human TGW cell growth in a cell viability assay.

UACC-257 = details: Homo sapiens, UACC-257
Description: SANGER: Inhibition of human UACC-257 cell growth in a cell viability assay.

VA-ES-BJ = details: Homo sapiens, VA-ES-BJ
Description: SANGER: Inhibition of human VA-ES-BJ cell growth in a cell viability assay.

## Nc1ccn([C@@H]2O[C@H](CO)[C@@H](O)C2(F)F)c(=O)n1 [GEMCITABINE]
COR-L88
  IC50: > 1.02 µM
CP66-MEL
  IC50: > 1.02 µM
CTV-1
  IC50: 0.0141 µM
DMS-79
  IC50: > 1.02 µM
DOHH-2
  IC50: 0.196 µM
EKVX
  IC50: > 1.02 µM
ES1
  IC50: < 0.004 µM
EW-24
  IC50: > 1.02 µM
GB-1
  IC50: 0.00584 µM
HCC1187
  IC50: > 1.02 µM
HCC2157
  IC50: > 1.02 µM
HD-MY-Z
  IC50: 0.00668 µM
HEL
  IC50: 0.00179 µM
HOP-62
  IC50: 0.223 µM
HT-144
  IC50: 0.00492 µM
IA-LM
  IC50: 0.00591 µM
IST-MEL1
  IC50: < 0.004 µM
KNS-81-FD
  IC50: > 1.02 µM
L-363
  IC50: 0.0955 µM
LU-139
  IC50: 0.0146 µM
MS-1
  IC50: 0.0463 µM
MSTO-211H
  IC50: > 1.02 µM
NB12
  IC50: 0.155 µM
NB5
  IC50: > 1.02 µM
NB6
  IC50: > 1.02 µM
NB69
  IC50: 0.00105 µM
NCI-H1092
  IC50: > 1.02 µM
NCI-H1304
  IC50: 0.385 µM
NCI-H209
  IC50: 0.0521 µM
NCI-H526
  IC50: 0.11 µM
NCI-H69
  IC50: 0.459 µM
NCI-H747
  IC50: 0.0423 µM
SNU-5
  IC50: 0.0121 µM
NTERA-2-cl-D1
  IC50: 0.00164 µM
OCUB-M
  IC50: 0.01 µM
SCC-15
  IC50: 0.121 µM
SK-N-DZ
  IC50: 0.0866 µM
SK-N-FI
  IC50: > 1.02 µM
SK-UT-1
  IC50: < 0.004 µM
SW 962
  IC50: 0.0524 µM
A3-KAW
  IC50: < 0.004 µM
AM-38
  IC50: < 0.004 µM
ATN-1
  IC50: < 0.004 µM
C8166
  IC50: 0.0131 µM
TGBC1TKB
  IC50: > 1.02 µM
TGW
  IC50: 0.2 µM
UACC-257
  IC50: 0.364 µM
VA-ES-BJ
  IC50: 0.00526 µM

## O=C(O)c1ccc(-c2c[nH]c3ncc(-c4ccccc4)cc23)cc1C1CCCC1 [GSK-650394]
COR-L88
  IC50: > 16 µM
CP66-MEL
  IC50: > 16 µM
CTV-1
  IC50: > 16 µM
DMS-79
  IC50: > 16 µM
DOHH-2
  IC50: > 16 µM
EKVX
  IC50: > 16 µM
ES1
  IC50: > 16 µM
EW-24
  IC50: > 16 µM
GB-1
  IC50: 5.96 µM
HCC1187
  IC50: > 16 µM
HCC2157
  IC50: 13.5 µM
HD-MY-Z
  IC50: > 16 µM
HEL
  IC50: 10.7 µM
HOP-62
  IC50: > 16 µM
HT-144
  IC50: > 16 µM
IA-LM
  IC50: 4.12 µM
IST-MEL1
  IC50: > 16 µM
KNS-81-FD
  IC50: > 16 µM
L-363
  IC50: > 16 µM
LU-139
  IC50: > 16 µM
MS-1
  IC50: > 16 µM
MSTO-211H
  IC50: > 16 µM
NB12
  IC50: > 16 µM
NB5
  IC50: > 16 µM
NB6
  IC50: > 16 µM
NB69
  IC50: > 16 µM
NCI-H1092
  IC50: > 16 µM
NCI-H1304
  IC50: > 16 µM
NCI-H209
  IC50: > 16 µM
NCI-H526
  IC50: 6.04 µM
NCI-H69
  IC50: 7.67 µM
NCI-H747
  IC50: > 16 µM
SNU-5
  IC50: > 16 µM
NTERA-2-cl-D1
  IC50: 3.55 µM
OCUB-M
  IC50: 2.79 µM
SCC-15
  IC50: > 16 µM
SK-N-DZ
  IC50: > 16 µM
SK-N-FI
  IC50: > 16 µM
SK-UT-1
  IC50: 11.8 µM
SW 962
  IC50: > 16 µM
A3-KAW
  IC50: > 16 µM
AM-38
  IC50: > 16 µM
ATN-1
  IC50: > 16 µM
C8166
  IC50: > 16 µM
TGBC1TKB
  IC50: > 16 µM
TGW
  IC50: > 16 µM
UACC-257
  IC50: > 16 µM
VA-ES-BJ
  IC50: 9.04 µM

Source: ChEMBL document CHEMBL1201861, “Genomics of Drug Sensitity in Cancer screening data, Wellcome Trust Sanger Institute”
